The values that follow come from patent US4309340A, “Polypeptide compositions” (American Home Products Corporation, priority 1980, dated 1982).

Where a SMILES comes first, the peptide text is derived from it. Where no end group is shown, it is not given here. [ ]: non-standard residue; d: D form.

Assay [1] has as its system T lymphocytes isolated from spleens of male CBA/J or NZB mice. Nature of the assay: T lymphocyte proliferation, 3H-thymidine incorporation. Type of assay: cell-based. Set-up: key: A = Active; IA = Inactive. The settings on record: 48 hours culture, 200 μl. As for the experimental part: The activity of the compounds of Example 2 and Example 4 was determined according to the following procedure:
T lymphocytes are isolated from spleens of male CBA/J or NZB mice. Cell homogenates are prepared in Hank's balanced salt solution (HBSS). After removal of larger particles and repeated washing of the cells in HBSS they are suspended in minimum essential medium (MEM) and passed through a glass wool column to remove macrophages. The cells are then incubated on a nylon wool column at 37° C., 95% air, 5% CO2, for 45 minutes. The non-adherant T lymphocytes are then eluted from the column, counted, and adjusted to 20×10^6 cells/ml. 50 μl of cells are cultured (37° C., 95% air, 5% CO2) with compound, for 48 hours before the addition of 0.5 μCi. of 3H-thymidine for the last 16 hours of culture. The total volume of the culture system is 200 μl. The cells are then harvested on a multiple automatic sample harvester (Mash II), the glass fiber filter disks placed in 10 ml. of xylene base scintillation fluid, and counted for 1 minute in a liquid scintillation counter. Results are reported as CPM±SE. Comparisons are made between counts obtained with control cultures and cultures containing compound and a determination made as to whether the compounds are active at the dosage tested.

In assay [2] the test system is autologous rosette-forming cells in the spleens of athymic mice. Conditions: in vivo; cited from earlier work.

Turning to `CC(=O)O.CC(=O)O.CC(=O)O.CC(C)[C@H](NC(=O)[C@H](CC(N)=O)NC(=O)[C@H](CCCCN)NC(=O)[C@@H](N)CCCNC(=N)N)C(=O)N[C@@H](Cc1ccc(O)cc1)C(N)=O` [Arg--Lys--Asn--Val--Tyr--NH2, L-Arginyl-L-lysyl-L-asparaginyl-L-valyl-L-tyrosyl-amide triacetate salt] (H-RKNVY-NH2), the “Activity (T-cell proliferation, 3H-thymidine CPM vs control cultures)” value in assay [1] (0.0015 μg/culture) was “A”; in assay [1] (0.006 μg/culture) it was “A”; in assay [1] (0.025 μg/culture) it was “A”; in assay [1] (0.05 μg/culture), “A”; in assay [1] (0.1 μg/culture), “A”; in assay [1] (0.2 μg/culture) it was “IA”.

Turning to `CC(=O)O.CC(=O)O.CC(=O)O.CC(C)[C@H](NC(=O)[C@H](CC(N)=O)NC(=O)[C@H](CCCCN)NC(=O)[C@H](N)CCCNC(=N)N)C(=O)N[C@H](Cc1ccccc1)C(N)=O` [D-Arg--Lys--Asn--Val--D-Phe--NH2, D-Arginyl-L-lysyl-L-asparaginyl-L-valyl-D-phenylalanyl amide tri acetate salt] (H-[dR]KNV[dF]-NH2), the “Activity (T-cell proliferation, 3H-thymidine CPM vs control cultures)” value in assay [1] (0.0015 μg/culture), in assay [1] (0.006 μg/culture), in assay [1] (0.025 μg/culture) and in assay [1] (0.1 μg/culture) was “A” throughout.

In the case of “RKDVY [arginyl-lysyl-aspartyl-valyl-tyrosine]”, the “Numbers of autologous rosette-forming cells in spleens of athymic mice” value in assay [2] is “reducing the high numbers of autologous rosette-forming cells”.
